From ChEMBL document CHEMBL1926563, “Synthesis, antimicrobial, antimycobacterial and structure-activity relationship of substituted pyrazolo-, isoxazolo-, pyrimido- and mercaptopyrimidocyclohepta[b]indoles” (2012)
Values after ≈ are worked out from the molar mass of the structure shown. Active and inactive are the calls of the source. No cut-off for these calls is given here.

Legend:
Fusarium solani [1] = test: Antifungal activity against Fusarium solani NCIM 1330 assessed as zone of inhibition at 200 ug/disc after 48 hrs by disk diffusion method; format: functional; conditions: NCIM 1330, 48 h, read-out: DIZ
Staphylococcus aureus [2] = test: Antibacterial activity against Staphylococcus aureus NCIM 5021 assessed as zone of inhibition at 100 ug/disc after 24 hrs by disk diffusion method; format: functional; conditions: NCIM 5021, 24 h, read-out: DIZ
Fusarium solani [3] = test: Antifungal activity against Fusarium solani NCIM 1330 assessed as zone of inhibition at 100 ug/disc after 48 hrs by disk diffusion method; format: functional; conditions: NCIM 1330, 48 h, read-out: DIZ
Bacillus subtilis [4] = test: Antibacterial activity against Bacillus subtilis NCIM 2063 after 24 hrs by disk diffusion method; format: functional; conditions: NCIM 2063, 24 h
Curvularia lunata [5] = test: Antifungal activity against Curvularia lunata NCIM 716 after 48 hrs by disk diffusion method; format: functional; conditions: NCIM 716, 48 h
Bacillus subtilis [6] = test: Antibacterial activity against Bacillus subtilis NCIM 2063 assessed as zone of inhibition at 200 ug/disc after 24 hrs by disk diffusion method; format: functional; conditions: NCIM 2063, 24 h, read-out: DIZ
Staphylococcus aureus [7] = test: Antibacterial activity against Staphylococcus aureus NCIM 5021 after 24 hrs by disk diffusion method; format: functional; conditions: NCIM 5021, 24 h
Curvularia lunata [8] = test: Antifungal activity against Curvularia lunata NCIM 716 assessed as zone of inhibition at 200 ug/disc after 48 hrs by disk diffusion method; format: functional; conditions: NCIM 716, 48 h, read-out: DIZ
Proteus vulgaris [9] = test: Antibacterial activity against Proteus vulgaris NCIM 2027 after 24 hrs by disk diffusion method; format: functional; conditions: NCIM 2027, 24 h
Klebsiella pneumoniae [10] = test: Antibacterial activity against Klebsiella pneumoniae NCIM 2957 after 24 hrs by disk diffusion method; format: functional; conditions: NCIM 2957, 24 h
Staphylococcus aureus [11] = test: Antibacterial activity against Staphylococcus aureus NCIM 5021 assessed as zone of inhibition at 200 ug/disc after 24 hrs by disk diffusion method; format: functional; conditions: NCIM 5021, 24 h, read-out: DIZ
Proteus vulgaris [12] = test: Antibacterial activity against Proteus vulgaris NCIM 2027 assessed as zone of inhibition at 100 ug/disc after 24 hrs by disk diffusion method; format: functional; conditions: NCIM 2027, 24 h, read-out: DIZ
Aspergillus niger [13] = test: Antifungal activity against Aspergillus niger NCIM 596 after 48 hrs by disk diffusion method; format: functional; conditions: NCIM 596, 48 h
Klebsiella pneumoniae [14] = test: Antibacterial activity against Klebsiella pneumoniae NCIM 2957 assessed as zone of inhibition at 100 ug/disc after 24 hrs by disk diffusion method; format: functional; conditions: NCIM 2957, 24 h, read-out: DIZ
[15] = system: Mycobacterium tuberculosis; test: Antimycobacterial activity against Mycobacterium tuberculosis H37Rv after 7 days by resazurin microtiter plate assay; format: functional; conditions: 168 h
Aspergillus niger [16] = test: Antifungal activity against Aspergillus niger NCIM 596 assessed as zone of inhibition at 200 ug/disc after 48 hrs by disk diffusion method; format: functional; conditions: NCIM 596, 48 h, read-out: DIZ
Klebsiella pneumoniae [17] = test: Antibacterial activity against Klebsiella pneumoniae NCIM 2957 assessed as zone of inhibition at 200 ug/disc after 24 hrs by disk diffusion method; format: functional; conditions: NCIM 2957, 24 h, read-out: DIZ
Fusarium solani [18] = test: Antifungal activity against Fusarium solani NCIM 1330 after 48 hrs by disk diffusion method; format: functional; conditions: NCIM 1330, 48 h
Bacillus subtilis [19] = test: Antibacterial activity against Bacillus subtilis NCIM 2063 assessed as zone of inhibition at 100 ug/disc after 24 hrs by disk diffusion method; format: functional; conditions: NCIM 2063, 24 h, read-out: DIZ
Proteus vulgaris [20] = test: Antibacterial activity against Proteus vulgaris NCIM 2027 assessed as zone of inhibition at 200 ug/disc after 24 hrs by disk diffusion method; format: functional; conditions: NCIM 2027, 24 h, read-out: DIZ
Curvularia lunata [21] = test: Antifungal activity against Curvularia lunata NCIM 716 assessed as zone of inhibition at 100 ug/disc after 48 hrs by disk diffusion method; format: functional; conditions: NCIM 716, 48 h, read-out: DIZ
Aspergillus niger [22] = test: Antifungal activity against Aspergillus niger NCIM 596 assessed as zone of inhibition at 100 ug/disc after 48 hrs by disk diffusion method; format: functional; conditions: NCIM 596, 48 h, read-out: DIZ
[23] = system: Mycobacterium tuberculosis; test: Antimycobacterial activity against Mycobacterium tuberculosis H37Rv at 1.5 to 50 ug/ml after 7 days by resazurin microtiter plate assay; format: functional, organism-based

Compound	zone of inhibition at 200 µg/disc (Fusarium solani [1])	zone of inhibition at 100 µg/disc (Staphylococcus aureus [2])	zone of inhibition at 100 µg/disc (Fusarium solani [3])	MIC (Bacillus subtilis [4])	MIC (Curvularia lunata [5])	zone of inhibition at 200 µg/disc (Bacillus subtilis [6])	MIC (Staphylococcus aureus [7])	zone of inhibition at 200 µg/disc (Curvularia lunata [8])	MIC (Proteus vulgaris [9])	MIC (Klebsiella pneumoniae [10])	zone of inhibition at 200 µg/disc (Staphylococcus aureus [11])	zone of inhibition at 100 µg/disc (Proteus vulgaris [12])	MIC (Aspergillus niger [13])	zone of inhibition at 100 µg/disc (Klebsiella pneumoniae [14])	zone of inhibition at 200 µg/disc (Aspergillus niger [16])	zone of inhibition at 200 µg/disc (Klebsiella pneumoniae [17])	zone of inhibition at 100 µg/disc (Bacillus subtilis [19])	zone of inhibition at 200 µg/disc (Proteus vulgaris [20])	zone of inhibition at 100 µg/disc (Curvularia lunata [21])	zone of inhibition at 100 µg/disc (Aspergillus niger [22])	other results
Clc1ccc2[nH]c3c(c2c1)CCCc1conc1-3	35 mm	32 mm	33 mm	50 µg/mL (≈ 193 µM)	100 µg/mL (≈ 387 µM)	34 mm	50 µg/mL (≈ 193 µM)	33 mm	200 µg/mL (≈ 773 µM)	100 µg/mL (≈ 387 µM)	33 mm	28 mm	100 µg/mL (≈ 387 µM)	26 mm	32 mm	29 mm	31 mm	30 mm	31 mm	29 mm	MIC [15]: 3.12 µg/mL (≈ 12.1 µM); MIC (Fusarium solani [18]): 100 µg/mL (≈ 387 µM)
Clc1ccc2[nH]c3c(c2c1)CCCc1cnn(-c2ccccc2)c1-3	39 mm	32 mm	32 mm	25 µg/mL (≈ 74.9 µM)	100 µg/mL (≈ 300 µM)	32 mm	25 µg/mL (≈ 74.9 µM)	38 mm	50 µg/mL (≈ 150 µM)	50 µg/mL (≈ 150 µM)	34 mm	29 mm	100 µg/mL (≈ 300 µM)	28 mm	35 mm	30 mm	33 mm	31 mm	31 mm	30 mm	MIC [15]: 3.12 µg/mL (≈ 9.35 µM); MIC (Fusarium solani [18]): 200 µg/mL (≈ 599 µM)
Sc1ncc2c(n1)-c1[nH]c3ccc(Cl)cc3c1CCC2	19 mm	16 mm	16 mm	50 µg/mL (≈ 166 µM)	50 µg/mL (≈ 166 µM)	17 mm	50 µg/mL (≈ 166 µM)	21 mm	100 µg/mL (≈ 331 µM)	100 µg/mL (≈ 331 µM)	18 mm	11 mm	50 µg/mL (≈ 166 µM)	12 mm	17 mm	14 mm	15 mm	13 mm	17 mm	15 mm	MIC [15]: 25 µg/mL (≈ 82.8 µM); MIC (Fusarium solani [18]): 100 µg/mL (≈ 331 µM)
Oc1ncc2c(n1)-c1[nH]c3ccc(Cl)cc3c1CCC2	20 mm	26 mm	17 mm	50 µg/mL (≈ 175 µM)	50 µg/mL (≈ 175 µM)	28 mm	50 µg/mL (≈ 175 µM)	23 mm	100 µg/mL (≈ 350 µM)	100 µg/mL (≈ 350 µM)	27 mm	22 mm	50 µg/mL (≈ 175 µM)	22 mm	19 mm	25 mm	25 mm	20 mm	19 mm	16 mm	MIC [15]: 3.12 µg/mL (≈ 10.9 µM); MIC (Fusarium solani [18]): 100 µg/mL (≈ 350 µM)
O=C(N[C@H](CO)[C@H](O)c1ccc([N+](=O)[O-])cc1)C(Cl)Cl [CHLORAMPHENICOL]	–	35 mm	–	6.25 µg/mL (≈ 19.3 µM)	–	43 mm	6.25 µg/mL (≈ 19.3 µM)	–	12.5 µg/mL (≈ 38.7 µM)	12.5 µg/mL (≈ 38.7 µM)	41 mm	42 mm	–	37 mm	–	42 mm	38 mm	44 mm	–	–	–
Clc1ccc2[nH]c3c(c2c1)CCCc1c[nH]nc1-3	39 mm	34 mm	35 mm	100 µg/mL (≈ 388 µM)	200 µg/mL (≈ 776 µM)	37 mm	100 µg/mL (≈ 388 µM)	38 mm	100 µg/mL (≈ 388 µM)	100 µg/mL (≈ 388 µM)	36 mm	31 mm	200 µg/mL (≈ 776 µM)	30 mm	35 mm	32 mm	35 mm	33 mm	34 mm	32 mm	MIC [15]: 12.5 µg/mL (≈ 48.5 µM); MIC (Fusarium solani [18]): 200 µg/mL (≈ 776 µM)
CC(=O)N1CCN(c2ccc(OCC3COC(Cn4ccnc4)(c4ccc(Cl)cc4Cl)O3)cc2)CC1 (stereo unspecified) [KETOCONAZOLE]	40 mm	–	36 mm	–	6.25 µg/mL (≈ 11.8 µM)	–	–	43 mm	–	–	–	–	6.25 µg/mL (≈ 11.8 µM)	–	38 mm	–	–	–	40 mm	35 mm	MIC (Fusarium solani [18]): 12.5 µg/mL (≈ 23.5 µM)
Cc1ccc2[nH]c3c(c2c1)CCCc1cnn(-c2ccccc2)c1-3	34 mm	27 mm	30 mm	–	–	31 mm	–	31 mm	–	–	30 mm	21 mm	–	26 mm	30 mm	28 mm	29 mm	23 mm	31 mm	29 mm	MIC [23]: inactive
